Active and inactive are the calls of the source.
What was measured:
Type in all cases: functional
[1] = target: Casein kinase I isoform delta (Homo sapiens, UniProt P48730);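 further: measured as one member (CSNK1D) of a kinome panel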
[2] = target: Homeodomain-interacting protein kinase 4 (Homo sapiens, UniProt Q8NE63)
[3] = target: Megakaryocyte-associated tyrosine-protein kinase (Homo sapiens, UniProt P42679);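 further: affinity measured as one member of a kinase panel (Navigating the Kinome) against MATK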
[4] = target: Casein kinase I isoform gamma-1 (Homo sapiens, UniProt Q9HCP0);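 further: measured as the CSNK1G1 member of a kinome profiling panel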
[5] = target: Protein kinase C gamma type (Homo sapiens, UniProt P05129)
[6] = target: Receptor tyrosine-protein kinase erbB-4 (Homo sapiens, UniProt Q15303);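 further: ERBB4 member of a kinome-wide kinase profiling panel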
[7] = target: Casein kinase II subunit alpha (Homo sapiens, UniProt P68400)
[8] = target: Aurora kinase B (Homo sapiens, UniProt Q96GD4)
[9] = target: MAP kinase-interacting serine/threonine-protein kinase 2 (Homo sapiens, UniProt Q9HBH9)
[10] = target: Serine/threonine-protein kinase pim-3 (Homo sapiens, UniProt Q86V86);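 further: value obtained as one member of a broad kinase panel profiling effort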
[11] = target: Cyclin-dependent kinase 2 (Homo sapiens, UniProt P24941);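 further: CDK2 measured as one member of a broad kinome profiling panel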
[12] = target: Ephrin type-A receptor 2 (Homo sapiens, UniProt P29317);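 further: EPHA2 tested as one member of a kinome-wide kinase panel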
[13] = target: Serine/threonine-protein kinase Nek2 (Homo sapiens, UniProt P51955)
[14] = target: Serine/threonine-protein kinase PAK 4 (Homo sapiens, UniProt O96013);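 further: value obtained within a kinome profiling panel in which PAK4 was one of the panel members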
[15] = target: Insulin-like growth factor 1 receptor (Homo sapiens, UniProt P08069); assay: Navigating the Kinome. Panel member name: IGF1R
[16] = target: Ribosomal protein S6 kinase alpha-3 (Homo sapiens, UniProt P51812);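 further: measured within a kinome-wide profiling panel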
[17] = target: Vascular endothelial growth factor receptor 3 (Homo sapiens, UniProt P35916);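 further: value from a kinome-wide profiling panel, with FLT4 as the panel member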
[18] = target: Macrophage colony-stimulating factor 1 receptor (Homo sapiens, UniProt P07333);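 further: value comes from the Navigating the Kinome screening panel, CSF1R member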
[19] = target: Mitogen-activated protein kinase kinase kinase kinase 2 (Homo sapiens, UniProt Q12851);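 further: measured as one member of a kinome-wide kinase panel, with MAP4K2 as the panel entry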
[20] = target: cGMP-dependent protein kinase 1 (Homo sapiens, UniProt Q13976);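 further: value from a kinome panel screen with PRKG1 as the panel member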
[21] = target: Serine/threonine-protein kinase Chk2 (Homo sapiens, UniProt O96017);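 further: CHEK2 entry within a kinome-wide screening panel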
[22] = target: Serine/threonine-protein kinase Chk1 (Homo sapiens, UniProt O14757);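 further: measured as one member of a kinome-wide kinase profiling panel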
[23] = target: RAC-gamma serine/threonine-protein kinase (Homo sapiens, UniProt Q9Y243)
[24] = target: Serine/threonine-protein kinase TAO1 (Homo sapiens, UniProt Q7L7X3)
[25] = target: Non-receptor tyrosine-protein kinase TYK2 (Homo sapiens, UniProt P29597)
[26] = target: ALK tyrosine kinase receptor (Homo sapiens, UniProt Q9UM73);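 further: ALK tested as one member of a kinase panel screen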
[27] = target: Misshapen-like kinase 1 (Homo sapiens, UniProt Q8N4C8);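 further: kinome panel screen with MINK as the panel member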
[28] = target: Calcium/calmodulin-dependent protein kinase type II subunit delta (Homo sapiens, UniProt Q13557)
[29] = target: Ribosomal protein S6 kinase beta-1 (Homo sapiens, UniProt P23443);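 further: measured as one member of a kinome-wide profiling panel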
[30] = target: Homeodomain-interacting protein kinase 2 (Homo sapiens, UniProt Q9H2X6);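 further: measured within a kinome-wide kinase profiling panel, HIPK2 being one panel member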
[31] = target: Dual specificity tyrosine-phosphorylation-regulated kinase 4 (Homo sapiens, UniProt Q9NR20)
[32] = target: Mitogen-activated protein kinase 13 (Homo sapiens, UniProt O15264)
[33] = target: Mitogen-activated protein kinase 8 (Homo sapiens, UniProt P45983);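 further: value comes from one member of a kinome-wide kinase profiling panel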
[34] = target: Interleukin-1 receptor-associated kinase 4 (Homo sapiens, UniProt Q9NWZ3)
[35] = target: Fibroblast growth factor receptor 3 (Homo sapiens, UniProt P22607)

Ribosomal protein S6 kinase alpha-3, sequence (P51812 whole entry): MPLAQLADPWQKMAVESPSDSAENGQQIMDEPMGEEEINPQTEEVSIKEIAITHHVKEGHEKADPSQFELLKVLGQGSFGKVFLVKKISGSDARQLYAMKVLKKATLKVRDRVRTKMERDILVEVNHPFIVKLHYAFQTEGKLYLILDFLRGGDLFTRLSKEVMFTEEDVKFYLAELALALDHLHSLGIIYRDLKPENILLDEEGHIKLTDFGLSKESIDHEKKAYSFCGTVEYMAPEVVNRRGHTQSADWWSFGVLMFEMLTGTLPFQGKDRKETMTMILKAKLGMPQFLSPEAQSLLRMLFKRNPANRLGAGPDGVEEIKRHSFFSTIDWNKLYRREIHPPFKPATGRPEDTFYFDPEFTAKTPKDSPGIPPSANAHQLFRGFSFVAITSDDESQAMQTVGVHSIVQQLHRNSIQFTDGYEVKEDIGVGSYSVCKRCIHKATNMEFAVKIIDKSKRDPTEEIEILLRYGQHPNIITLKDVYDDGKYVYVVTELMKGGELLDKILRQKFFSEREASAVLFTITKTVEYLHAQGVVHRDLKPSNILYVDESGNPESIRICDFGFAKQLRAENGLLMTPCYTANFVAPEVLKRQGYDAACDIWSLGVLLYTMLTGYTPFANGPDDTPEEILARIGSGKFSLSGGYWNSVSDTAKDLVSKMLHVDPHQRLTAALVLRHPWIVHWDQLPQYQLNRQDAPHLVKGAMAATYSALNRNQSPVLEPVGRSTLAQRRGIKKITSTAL
Megakaryocyte-associated tyrosine-protein kinase, sequence (P42679 whole entry, canonical isoform): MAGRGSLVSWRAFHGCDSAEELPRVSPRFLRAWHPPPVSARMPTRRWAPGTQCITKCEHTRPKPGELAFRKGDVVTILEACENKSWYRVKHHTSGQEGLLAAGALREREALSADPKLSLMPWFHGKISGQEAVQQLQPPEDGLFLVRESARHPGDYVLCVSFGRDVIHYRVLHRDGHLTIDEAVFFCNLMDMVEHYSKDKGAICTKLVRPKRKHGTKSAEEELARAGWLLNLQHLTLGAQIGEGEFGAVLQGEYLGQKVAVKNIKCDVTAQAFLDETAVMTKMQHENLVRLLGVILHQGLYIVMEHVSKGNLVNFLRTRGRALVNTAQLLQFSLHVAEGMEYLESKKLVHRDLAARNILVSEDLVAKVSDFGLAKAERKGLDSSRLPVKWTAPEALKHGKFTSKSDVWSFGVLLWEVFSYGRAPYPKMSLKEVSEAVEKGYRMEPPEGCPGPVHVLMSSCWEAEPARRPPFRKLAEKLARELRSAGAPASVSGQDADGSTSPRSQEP
Homeodomain-interacting protein kinase 2, sequence (Q9H2X6 whole entry): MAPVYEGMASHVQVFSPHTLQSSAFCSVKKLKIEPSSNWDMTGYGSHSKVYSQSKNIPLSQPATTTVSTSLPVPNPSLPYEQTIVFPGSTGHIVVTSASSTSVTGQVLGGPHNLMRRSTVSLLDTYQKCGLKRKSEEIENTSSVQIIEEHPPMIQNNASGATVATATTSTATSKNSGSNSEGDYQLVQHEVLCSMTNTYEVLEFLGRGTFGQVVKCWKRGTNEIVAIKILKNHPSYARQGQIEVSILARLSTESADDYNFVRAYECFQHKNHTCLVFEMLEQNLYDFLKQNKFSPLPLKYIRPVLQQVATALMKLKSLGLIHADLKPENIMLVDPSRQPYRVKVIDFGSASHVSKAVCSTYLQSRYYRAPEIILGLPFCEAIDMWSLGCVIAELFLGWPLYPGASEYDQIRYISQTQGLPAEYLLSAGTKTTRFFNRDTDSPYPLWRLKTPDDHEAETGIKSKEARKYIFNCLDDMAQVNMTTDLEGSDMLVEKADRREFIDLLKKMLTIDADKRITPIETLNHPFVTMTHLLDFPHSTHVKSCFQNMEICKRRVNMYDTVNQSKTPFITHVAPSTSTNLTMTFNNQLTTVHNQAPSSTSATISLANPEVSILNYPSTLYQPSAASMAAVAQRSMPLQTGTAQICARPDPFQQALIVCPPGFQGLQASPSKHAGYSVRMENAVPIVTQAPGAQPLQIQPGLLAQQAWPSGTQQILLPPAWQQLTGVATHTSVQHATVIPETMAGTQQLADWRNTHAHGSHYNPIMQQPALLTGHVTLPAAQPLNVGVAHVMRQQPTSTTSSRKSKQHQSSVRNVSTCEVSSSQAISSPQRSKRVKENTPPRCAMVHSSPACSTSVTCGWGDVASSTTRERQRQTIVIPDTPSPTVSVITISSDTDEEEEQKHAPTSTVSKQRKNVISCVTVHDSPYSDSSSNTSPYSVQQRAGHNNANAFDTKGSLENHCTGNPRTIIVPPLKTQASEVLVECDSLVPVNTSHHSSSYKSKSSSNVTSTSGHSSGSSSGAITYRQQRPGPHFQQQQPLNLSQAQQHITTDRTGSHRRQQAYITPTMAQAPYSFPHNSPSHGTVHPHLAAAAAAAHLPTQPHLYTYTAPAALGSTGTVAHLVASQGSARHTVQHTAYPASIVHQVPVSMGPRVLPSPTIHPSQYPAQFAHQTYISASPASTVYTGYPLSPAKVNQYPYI
Casein kinase I isoform delta, sequence (P48730 whole entry, canonical isoform): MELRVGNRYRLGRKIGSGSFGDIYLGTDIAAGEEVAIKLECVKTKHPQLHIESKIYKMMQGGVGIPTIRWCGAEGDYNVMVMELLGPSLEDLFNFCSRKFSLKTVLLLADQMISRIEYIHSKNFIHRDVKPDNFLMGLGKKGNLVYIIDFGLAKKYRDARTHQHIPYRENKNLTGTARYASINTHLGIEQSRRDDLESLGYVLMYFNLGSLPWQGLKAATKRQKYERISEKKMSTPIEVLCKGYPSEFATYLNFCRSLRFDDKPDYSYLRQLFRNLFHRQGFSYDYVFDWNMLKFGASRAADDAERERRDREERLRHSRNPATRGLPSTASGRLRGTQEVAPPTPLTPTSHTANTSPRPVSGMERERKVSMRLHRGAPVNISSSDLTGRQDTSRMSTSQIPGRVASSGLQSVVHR
Ribosomal protein S6 kinase beta-1, sequence (P23443 whole entry): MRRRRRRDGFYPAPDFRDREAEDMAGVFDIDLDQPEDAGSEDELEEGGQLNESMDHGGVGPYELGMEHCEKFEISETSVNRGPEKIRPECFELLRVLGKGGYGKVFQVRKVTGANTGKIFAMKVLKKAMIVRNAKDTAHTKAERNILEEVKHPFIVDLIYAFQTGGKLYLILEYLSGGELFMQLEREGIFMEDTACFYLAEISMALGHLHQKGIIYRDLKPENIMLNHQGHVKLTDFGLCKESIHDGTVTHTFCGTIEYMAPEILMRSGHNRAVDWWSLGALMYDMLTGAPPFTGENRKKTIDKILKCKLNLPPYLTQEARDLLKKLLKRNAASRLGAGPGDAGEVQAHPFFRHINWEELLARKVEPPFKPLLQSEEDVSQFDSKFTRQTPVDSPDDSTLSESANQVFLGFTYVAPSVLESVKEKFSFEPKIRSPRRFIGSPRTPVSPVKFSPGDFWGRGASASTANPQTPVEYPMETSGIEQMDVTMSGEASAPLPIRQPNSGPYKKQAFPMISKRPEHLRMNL
Receptor tyrosine-protein kinase erbB-4, sequence (Q15303 whole entry): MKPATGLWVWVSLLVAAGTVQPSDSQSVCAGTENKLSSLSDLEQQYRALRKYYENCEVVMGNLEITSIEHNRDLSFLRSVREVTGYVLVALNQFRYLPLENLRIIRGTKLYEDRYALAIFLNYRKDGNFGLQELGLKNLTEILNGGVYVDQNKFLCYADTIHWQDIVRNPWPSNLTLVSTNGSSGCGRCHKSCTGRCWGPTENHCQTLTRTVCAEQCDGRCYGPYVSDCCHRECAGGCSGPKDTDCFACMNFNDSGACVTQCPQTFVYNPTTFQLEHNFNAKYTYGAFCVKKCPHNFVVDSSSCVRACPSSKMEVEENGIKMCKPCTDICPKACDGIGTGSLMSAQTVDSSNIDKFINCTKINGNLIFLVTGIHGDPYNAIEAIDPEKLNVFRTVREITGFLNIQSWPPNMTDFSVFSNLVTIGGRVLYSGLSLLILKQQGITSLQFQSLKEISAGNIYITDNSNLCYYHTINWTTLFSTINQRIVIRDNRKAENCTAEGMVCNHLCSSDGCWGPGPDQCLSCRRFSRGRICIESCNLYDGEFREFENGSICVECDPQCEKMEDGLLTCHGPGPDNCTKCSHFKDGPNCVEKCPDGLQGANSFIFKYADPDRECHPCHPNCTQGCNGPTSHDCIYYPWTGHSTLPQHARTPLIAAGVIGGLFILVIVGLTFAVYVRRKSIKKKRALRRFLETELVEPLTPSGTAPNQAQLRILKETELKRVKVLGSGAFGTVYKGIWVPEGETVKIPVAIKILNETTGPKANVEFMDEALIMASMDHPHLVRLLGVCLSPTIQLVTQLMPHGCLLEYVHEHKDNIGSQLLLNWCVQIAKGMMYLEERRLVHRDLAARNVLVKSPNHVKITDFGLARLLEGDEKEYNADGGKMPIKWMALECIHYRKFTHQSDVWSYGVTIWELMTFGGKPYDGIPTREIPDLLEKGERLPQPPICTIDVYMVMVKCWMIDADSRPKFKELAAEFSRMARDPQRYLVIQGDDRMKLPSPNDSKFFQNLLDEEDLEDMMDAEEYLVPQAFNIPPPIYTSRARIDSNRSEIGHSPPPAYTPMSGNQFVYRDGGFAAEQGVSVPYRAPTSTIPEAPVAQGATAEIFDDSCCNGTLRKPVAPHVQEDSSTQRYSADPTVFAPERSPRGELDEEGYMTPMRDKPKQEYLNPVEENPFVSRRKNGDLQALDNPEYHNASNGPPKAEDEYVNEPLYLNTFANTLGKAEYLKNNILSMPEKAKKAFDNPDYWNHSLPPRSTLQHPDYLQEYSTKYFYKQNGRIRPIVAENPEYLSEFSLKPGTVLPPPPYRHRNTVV
Aurora kinase B, sequence (Q96GD4 whole entry): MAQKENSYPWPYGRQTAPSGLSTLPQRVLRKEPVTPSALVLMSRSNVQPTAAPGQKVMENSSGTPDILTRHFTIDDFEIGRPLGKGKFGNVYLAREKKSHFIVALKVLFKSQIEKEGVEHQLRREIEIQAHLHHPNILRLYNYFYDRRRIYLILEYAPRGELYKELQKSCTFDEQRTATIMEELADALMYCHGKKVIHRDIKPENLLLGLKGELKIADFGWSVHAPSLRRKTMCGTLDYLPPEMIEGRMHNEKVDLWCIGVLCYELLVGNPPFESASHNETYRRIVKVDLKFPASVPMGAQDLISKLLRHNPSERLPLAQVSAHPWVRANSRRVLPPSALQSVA

## Cn1cncc1C(OCc1c(-c2ccc(OC(F)(F)F)cc2)cc(C#N)c(=O)n1C)c1ccc(C#N)cc1 (stereo not given)
[1]
  Ki: > 7.94 µM (inactive)
[2]
  Ki: > 7.94 µM (inactive)
[3]
  Ki: > 2 µM (inactive)
[4]
  Ki: > 6.31 µM (inactive)
[5]
  Ki: > 7.94 µM (inactive)
[6]
  Ki: > 3.98 µM (inactive)
[7]
  Ki: > 6.31 µM (inactive)
[8]
  Ki: 0.158 µM (active)
[9]
  Ki: > 10 µM (inactive)
[10]
  Ki: > 7.94 µM (inactive)
[11]
  Ki: > 7.94 µM (inactive)
[12]
  Ki: > 3.16 µM (inactive)
[13]
  Ki: > 10 µM (inactive)
[14]
  Ki: > 5.01 µM (inactive)
[15]
  Ki: > 2 µM (inactive)
[16]
  Ki: > 7.94 µM (inactive)
[17]
  Ki: > 6.31 µM (inactive)
[18]
  Ki: > 2.51 µM (inactive)
[19]
  Ki: > 6.31 µM (inactive)
[20]
  Ki: > 2 µM (inactive)
[21]
  Ki: > 1.58 µM (inactive)
[22]
  Ki: > 7.94 µM (inactive)
[23]
  Ki: > 10 µM (inactive)
[24]
  Ki: 3.98 µM (active)
[25]
  Ki: > 2 µM (inactive)
[26]
  Ki: > 6.31 µM (inactive)
[27]
  Ki: > 7.94 µM (inactive)
[28]
  Ki: > 6.31 µM (inactive)
[29]
  Ki: 1.58 µM (active)
[30]
  Ki: > 3.16 µM (inactive)
[31]
  Ki: > 7.94 µM (inactive)
[32]
  Ki: > 7.94 µM (inactive)
[33]
  Ki: > 3.16 µM (inactive)
[34]
  Ki: > 10 µM (inactive)
[35]
  Ki: > 2 µM (inactive)

Source: ChEMBL document CHEMBL1201862, “PubChem BioAssay data set” (2004)
